Test results reported in ChEMBL document CHEMBL4219219, “The synthesis and antistaphylococcal activity of N-sulfonaminoethyloxime derivatives of dehydroabietic acid” (Bioorg Med Chem Lett, 2018).
Converted amounts (≈) assume the structure as drawn. The source made the active and inactive calls. The rule behind the calls is not given here.

Key:
Escherichia coli = test: Antibacterial activity against Escherichia coli AB1157 at 50 ug/ml after 18 hrs by two-fold serial dilution method; assay type: functional, organism-based
Staphylococcus aureus [1] = test: Antistaphylococcal activity against Staphylococcus aureus Newman after 18 hrs by two-fold serial dilution method; assay type: functional
Staphylococcus aureus [2] = test: Antistaphylococcal activity against aminoglycosides/tetracycline-resistant Staphylococcus aureus NRS-1 after 18 hrs by two-fold serial dilution method; assay type: functional; conditions: NRS-1, 18 h
Staphylococcus aureus [3] = test: Antistaphylococcal activity against erythromycin-resistant Staphylococcus aureus NRS-70 after 18 hrs by two-fold serial dilution method; assay type: functional; conditions: NRS-70, 18 h
Staphylococcus aureus [4] = test: Antistaphylococcal activity against oxacillin/tetracycline-resistant Staphylococcus aureus NRS-100 after 18 hrs by two-fold serial dilution method; assay type: functional; conditions: NRS-100, 18 h
Staphylococcus aureus [5] = test: Antistaphylococcal activity against gentamicin-resistant Staphylococcus aureus NRS-108 after 18 hrs by two-fold serial dilution method; assay type: functional; conditions: NRS-108, 18 h
Staphylococcus aureus [6] = test: Antistaphylococcal activity against linezolid-resistant Staphylococcus aureus NRS-271 containing phage type E-MRSA 15 after 18 hrs by two-fold serial dilution method; assay type: functional; conditions: NRS-271, 18 h

Structure (SMILES): CC(C)c1cc2c(cc1Br)[C@@]1(C)CCC[C@@](C)(C(=O)O)[C@@H]1C/C2=N\OCCNS(=O)(=O)c1cccc(Br)c1
- Activity (Escherichia coli): inactive
- MIC (Staphylococcus aureus [1]): 0.78 to 1.56 µg/mL (≈ 1.16 to 2.33 µM)
- MIC (Staphylococcus aureus [2]): 1.56 to 3.13 µg/mL (≈ 2.33 to 4.67 µM)
- MIC (Staphylococcus aureus [3]): 0.78 to 1.56 µg/mL (≈ 1.16 to 2.33 µM)
- MIC (Staphylococcus aureus [4]): 1.56 to 3.13 µg/mL (≈ 2.33 to 4.67 µM)
- MIC (Staphylococcus aureus [5]): 0.78 to 1.56 µg/mL (≈ 1.16 to 2.33 µM)
- MIC (Staphylococcus aureus [6]): 1.56 to 3.13 µg/mL (≈ 2.33 to 4.67 µM)

Structure (SMILES): CC(C)c1cc2c(cc1Br)[C@@]1(C)CCC[C@@](C)(C(=O)O)[C@@H]1C/C2=N\OCCNS(=O)(=O)c1ccc(Br)c(C(F)(F)F)c1
- Activity (Escherichia coli): inactive
- MIC (Staphylococcus aureus [1]): 0.78 to 1.56 µg/mL (≈ 1.06 to 2.11 µM)
- MIC (Staphylococcus aureus [2]): 0.78 to 1.56 µg/mL (≈ 1.06 to 2.11 µM)
- MIC (Staphylococcus aureus [3]): 0.78 to 1.56 µg/mL (≈ 1.06 to 2.11 µM)
- MIC (Staphylococcus aureus [4]): 0.78 to 1.56 µg/mL (≈ 1.06 to 2.11 µM)
- MIC (Staphylococcus aureus [5]): 0.78 to 1.56 µg/mL (≈ 1.06 to 2.11 µM)
- MIC (Staphylococcus aureus [6]): 0.78 to 1.56 µg/mL (≈ 1.06 to 2.11 µM)

Structure (SMILES): CC(C)c1cc2c(cc1Br)[C@@]1(C)CCC[C@@](C)(C(=O)O)[C@@H]1C/C2=N\OCCNS(=O)(=O)c1ccc(Cl)c(C(F)(F)F)c1
- Activity (Escherichia coli): inactive
- MIC (Staphylococcus aureus [1]): 0.78 to 1.56 µg/mL (≈ 1.12 to 2.25 µM)
- MIC (Staphylococcus aureus [2]): 12.5 to 25 µg/mL (≈ 18 to 36 µM)
- MIC (Staphylococcus aureus [3]): 0.78 to 1.56 µg/mL (≈ 1.12 to 2.25 µM)
- MIC (Staphylococcus aureus [4]): > 50 µg/mL
- MIC (Staphylococcus aureus [5]): 0.78 to 1.56 µg/mL (≈ 1.12 to 2.25 µM)
- MIC (Staphylococcus aureus [6]): 25 to 50 µg/mL (≈ 36 to 72 µM)

Structure (SMILES): CC(C)c1cc2c(cc1Br)[C@@]1(C)CCC[C@@](C)(C(=O)O)[C@@H]1C/C2=N\OCCNS(=O)(=O)c1ccccc1C(F)(F)F
- Activity (Escherichia coli): inactive
- MIC (Staphylococcus aureus [1]): > 50 µg/mL

Structure (SMILES): CC(C)c1cc2c(cc1Br)[C@@]1(C)CCC[C@@](C)(C(=O)O)[C@@H]1C/C2=N\OCCNS(=O)(=O)c1cccc(Cl)c1
- Activity (Escherichia coli): inactive
- MIC (Staphylococcus aureus [1]): 0.78 to 1.56 µg/mL (≈ 1.25 to 2.49 µM)
- MIC (Staphylococcus aureus [2]): 1.56 to 3.13 µg/mL (≈ 2.49 to 5 µM)
- MIC (Staphylococcus aureus [3]): 0.78 to 1.56 µg/mL (≈ 1.25 to 2.49 µM)
- MIC (Staphylococcus aureus [4]): 1.56 to 3.13 µg/mL (≈ 2.49 to 5 µM)
- MIC (Staphylococcus aureus [5]): 1.56 to 3.13 µg/mL (≈ 2.49 to 5 µM)
- MIC (Staphylococcus aureus [6]): 1.56 to 3.13 µg/mL (≈ 2.49 to 5 µM)

Structure (SMILES): CC(C)c1cc2c(cc1Br)[C@@]1(C)CCC[C@@](C)(C(=O)O)[C@@H]1C/C2=N\OCCNS(=O)(=O)c1ccc(F)cc1
- Activity (Escherichia coli): inactive
- MIC (Staphylococcus aureus [1]): 1.56 to 3.13 µg/mL (≈ 2.56 to 5.13 µM)
- MIC (Staphylococcus aureus [2]): 1.56 to 3.13 µg/mL (≈ 2.56 to 5.13 µM)
- MIC (Staphylococcus aureus [3]): 1.56 to 3.13 µg/mL (≈ 2.56 to 5.13 µM)
- MIC (Staphylococcus aureus [4]): 1.56 to 3.13 µg/mL (≈ 2.56 to 5.13 µM)
- MIC (Staphylococcus aureus [5]): 1.56 to 3.13 µg/mL (≈ 2.56 to 5.13 µM)
- MIC (Staphylococcus aureus [6]): 1.56 to 3.13 µg/mL (≈ 2.56 to 5.13 µM)

Structure (SMILES): CN(C)[C@@H]1C(O)=C(C(N)=O)C(=O)[C@@]2(O)C(O)=C3C(=O)c4c(O)cccc4[C@@](C)(O)[C@H]3C[C@@H]12 [TETRACYCLINE]
- MIC (Staphylococcus aureus [1]): < 0.2 µg/mL
- MIC (Staphylococcus aureus [2]): > 25 µg/mL
- MIC (Staphylococcus aureus [3]): < 0.2 µg/mL
- MIC (Staphylococcus aureus [4]): < 0.2 µg/mL
- MIC (Staphylococcus aureus [5]): < 0.2 µg/mL
- MIC (Staphylococcus aureus [6]): < 0.2 µg/mL

Structure (SMILES): CN[C@H](CC(C)C)C(=O)N[C@H]1C(=O)N[C@@H](CC(N)=O)C(=O)N[C@H]2C(=O)N[C@H]3C(=O)N[C@H](C(=O)N[C@H](C(=O)O)c4cc(O)cc(O)c4-c4cc3ccc4O)[C@H](O)c3ccc(c(Cl)c3)Oc3cc2cc(c3O[C@@H]2O[C@H](CO)[C@@H](O)[C@H](O)[C@H]2O[C@H]2C[C@](C)(N)[C@H](O)[C@H](C)O2)Oc2ccc(cc2Cl)[C@H]1O [VANCOMYCIN]
- MIC (Staphylococcus aureus [1]): 0.78 to 1.56 µg/mL (≈ 0.538 to 1.08 µM)
- MIC (Staphylococcus aureus [2]): 1.56 to 3.13 µg/mL (≈ 1.08 to 2.16 µM)
- MIC (Staphylococcus aureus [3]): 0.2 to 0.39 µg/mL (≈ 0.138 to 0.269 µM)
- MIC (Staphylococcus aureus [4]): 0.39 to 0.78 µg/mL (≈ 0.269 to 0.538 µM)
- MIC (Staphylococcus aureus [5]): 0.39 to 0.78 µg/mL (≈ 0.269 to 0.538 µM)
- MIC (Staphylococcus aureus [6]): 0.39 to 0.78 µg/mL (≈ 0.269 to 0.538 µM)

Structure (SMILES): CC(C)c1cc2c(cc1Br)[C@@]1(C)CCC[C@@](C)(C(=O)O)[C@@H]1C/C2=N\OCCNS(=O)(=O)c1ccc(Cl)nc1
- Activity (Escherichia coli): inactive
- MIC (Staphylococcus aureus [1]): 3.13 to 6.25 µg/mL (≈ 4.99 to 9.97 µM)

Structure (SMILES): CC(C)c1cc2c(cc1Br)[C@@]1(C)CCC[C@@](C)(C(=O)O)[C@@H]1C/C2=N\OCCNS(=O)(=O)c1ccccc1Br
- Activity (Escherichia coli): inactive
- MIC (Staphylococcus aureus [1]): 1.56 to 3.13 µg/mL (≈ 2.33 to 4.67 µM)
- MIC (Staphylococcus aureus [2]): 1.56 to 3.13 µg/mL (≈ 2.33 to 4.67 µM)
- MIC (Staphylococcus aureus [3]): 1.56 to 3.13 µg/mL (≈ 2.33 to 4.67 µM)
- MIC (Staphylococcus aureus [4]): 1.56 to 3.13 µg/mL (≈ 2.33 to 4.67 µM)
- MIC (Staphylococcus aureus [5]): 1.56 to 3.13 µg/mL (≈ 2.33 to 4.67 µM)
- MIC (Staphylococcus aureus [6]): 1.56 to 3.13 µg/mL (≈ 2.33 to 4.67 µM)

Structure (SMILES): CCS(=O)(=O)NCCO/N=C1\C[C@H]2[C@](C)(C(=O)O)CCC[C@]2(C)c2cc(Br)c(C(C)C)cc21
- Activity (Escherichia coli): inactive
- MIC (Staphylococcus aureus [1]): 12.5 to 25 µg/mL (≈ 23 to 46 µM)

Structure (SMILES): CC(C)c1cc2c(cc1Br)[C@@]1(C)CCC[C@@](C)(C(=O)O)[C@@H]1C/C2=N\OCCNS(=O)(=O)c1cccc(C(F)(F)F)c1
- Activity (Escherichia coli): inactive
- MIC (Staphylococcus aureus [1]): 0.39 to 0.78 µg/mL (≈ 0.591 to 1.18 µM)
- MIC (Staphylococcus aureus [2]): 1.56 to 3.13 µg/mL (≈ 2.37 to 4.75 µM)
- MIC (Staphylococcus aureus [3]): 0.78 to 1.56 µg/mL (≈ 1.18 to 2.37 µM)
- MIC (Staphylococcus aureus [4]): 1.56 to 3.13 µg/mL (≈ 2.37 to 4.75 µM)
- MIC (Staphylococcus aureus [5]): 0.78 to 1.56 µg/mL (≈ 1.18 to 2.37 µM)
- MIC (Staphylococcus aureus [6]): 1.56 to 3.13 µg/mL (≈ 2.37 to 4.75 µM)

Structure (SMILES): CC(C)c1cc2c(cc1Br)[C@@]1(C)CCC[C@@](C)(C(=O)O)[C@@H]1C/C2=N\OCCNS(=O)(=O)c1ccccc1
- Activity (Escherichia coli): inactive
- MIC (Staphylococcus aureus [1]): 1.56 to 3.13 µg/mL (≈ 2.64 to 5.29 µM)
- MIC (Staphylococcus aureus [2]): 1.56 to 3.13 µg/mL (≈ 2.64 to 5.29 µM)
- MIC (Staphylococcus aureus [3]): 0.78 to 1.56 µg/mL (≈ 1.32 to 2.64 µM)
- MIC (Staphylococcus aureus [4]): 1.56 to 3.13 µg/mL (≈ 2.64 to 5.29 µM)
- MIC (Staphylococcus aureus [5]): 1.56 to 3.13 µg/mL (≈ 2.64 to 5.29 µM)
- MIC (Staphylococcus aureus [6]): 1.56 to 3.13 µg/mL (≈ 2.64 to 5.29 µM)

Structure (SMILES): Cc1ccccc1S(=O)(=O)NCCO/N=C1\C[C@H]2[C@](C)(C(=O)O)CCC[C@]2(C)c2cc(Br)c(C(C)C)cc21
- Activity (Escherichia coli): inactive
- MIC (Staphylococcus aureus [1]): 1.56 to 3.13 µg/mL (≈ 2.58 to 5.17 µM)
- MIC (Staphylococcus aureus [2]): 1.56 to 3.13 µg/mL (≈ 2.58 to 5.17 µM)
- MIC (Staphylococcus aureus [3]): 1.56 to 3.13 µg/mL (≈ 2.58 to 5.17 µM)
- MIC (Staphylococcus aureus [4]): 3.13 to 6.25 µg/mL (≈ 5.17 to 10.3 µM)
- MIC (Staphylococcus aureus [5]): 1.56 to 3.13 µg/mL (≈ 2.58 to 5.17 µM)
- MIC (Staphylococcus aureus [6]): 1.56 to 3.13 µg/mL (≈ 2.58 to 5.17 µM)

Structure (SMILES): CC(C)c1cc2c(cc1Br)[C@@]1(C)CCC[C@@](C)(C(=O)O)[C@@H]1C/C2=N\OCCNS(=O)(=O)c1cccnc1
- Activity (Escherichia coli): inactive
- MIC (Staphylococcus aureus [1]): 3.13 to 6.25 µg/mL (≈ 5.28 to 10.5 µM)

Structure (SMILES): CCCS(=O)(=O)NCCO/N=C1\C[C@H]2[C@](C)(C(=O)O)CCC[C@]2(C)c2cc(Br)c(C(C)C)cc21
- Activity (Escherichia coli): inactive
- MIC (Staphylococcus aureus [1]): 12.5 to 25 µg/mL (≈ 22.4 to 44.8 µM)

Structure (SMILES): CC(C)c1cc2c(cc1Br)[C@@]1(C)CCC[C@@](C)(C(=O)O)[C@@H]1C/C2=N\OCCNS(=O)(=O)c1cc(F)c(F)c(F)c1
- Activity (Escherichia coli): inactive
- MIC (Staphylococcus aureus [1]): > 50 µg/mL

Structure (SMILES): CC(C)c1cc2c(cc1Br)[C@@]1(C)CCC[C@@](C)(C(=O)O)[C@@H]1C/C2=N\OCCNS(=O)(=O)c1cccs1
- Activity (Escherichia coli): inactive
